Results reported in paper PMC12155096 (International Journal of Molecular Sciences, 2025).
pIC50: −log10 of the molar value. Counter-ions that a name gives are not always drawn. Like-named read-outs stand apart in the source and are kept apart here.

How the values were obtained:
human CYP2D6 [1] = molecular target: T1, human CYP2D6 (Homo sapiens, UniProt P10635); assay: biochemical; conditions: for pIC50: CYP2D6 IC50 (half-maximal inhibitory concentration)
CYP3A4 = CYP3A4 (Homo sapiens, UniProt P08684)
Sequence of CYP3A4 (P08684 whole entry): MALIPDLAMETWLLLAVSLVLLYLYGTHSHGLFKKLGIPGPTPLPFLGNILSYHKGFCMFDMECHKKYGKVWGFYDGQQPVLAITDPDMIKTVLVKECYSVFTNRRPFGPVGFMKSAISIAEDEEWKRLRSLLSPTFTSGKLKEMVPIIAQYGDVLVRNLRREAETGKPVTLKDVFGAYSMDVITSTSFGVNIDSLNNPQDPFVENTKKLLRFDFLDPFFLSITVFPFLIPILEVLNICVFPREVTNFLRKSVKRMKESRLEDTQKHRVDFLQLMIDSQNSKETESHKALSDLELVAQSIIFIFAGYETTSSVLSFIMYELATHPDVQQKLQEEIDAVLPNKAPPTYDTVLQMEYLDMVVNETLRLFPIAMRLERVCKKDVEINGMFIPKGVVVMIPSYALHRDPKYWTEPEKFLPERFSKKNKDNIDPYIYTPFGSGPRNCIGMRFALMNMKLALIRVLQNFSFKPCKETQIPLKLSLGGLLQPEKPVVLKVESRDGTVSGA

human CYP2C9 [2] = molecular target: T2, human CYP2C9 (Homo sapiens, UniProt P11712)
T2 sequence (P11712 whole entry): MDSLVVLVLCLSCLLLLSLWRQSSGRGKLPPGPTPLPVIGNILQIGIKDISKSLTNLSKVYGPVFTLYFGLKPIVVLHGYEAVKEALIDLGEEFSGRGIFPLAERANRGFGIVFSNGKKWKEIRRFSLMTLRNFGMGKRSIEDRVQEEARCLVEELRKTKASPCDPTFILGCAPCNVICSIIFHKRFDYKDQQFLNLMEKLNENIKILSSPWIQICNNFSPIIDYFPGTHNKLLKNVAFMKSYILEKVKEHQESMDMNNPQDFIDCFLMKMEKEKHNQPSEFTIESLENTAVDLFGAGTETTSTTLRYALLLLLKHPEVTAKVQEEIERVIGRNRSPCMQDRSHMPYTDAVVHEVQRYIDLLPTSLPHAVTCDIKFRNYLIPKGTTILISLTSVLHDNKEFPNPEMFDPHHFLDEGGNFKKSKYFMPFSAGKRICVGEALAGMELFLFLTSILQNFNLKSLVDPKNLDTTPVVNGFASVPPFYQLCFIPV

human CYP2D6 [3] = molecular target: T1, human CYP2D6
human CYP2C19 [4] = molecular target: T3, human CYP2C19 (Homo sapiens, UniProt P33261)
T3 sequence (P33261 whole entry): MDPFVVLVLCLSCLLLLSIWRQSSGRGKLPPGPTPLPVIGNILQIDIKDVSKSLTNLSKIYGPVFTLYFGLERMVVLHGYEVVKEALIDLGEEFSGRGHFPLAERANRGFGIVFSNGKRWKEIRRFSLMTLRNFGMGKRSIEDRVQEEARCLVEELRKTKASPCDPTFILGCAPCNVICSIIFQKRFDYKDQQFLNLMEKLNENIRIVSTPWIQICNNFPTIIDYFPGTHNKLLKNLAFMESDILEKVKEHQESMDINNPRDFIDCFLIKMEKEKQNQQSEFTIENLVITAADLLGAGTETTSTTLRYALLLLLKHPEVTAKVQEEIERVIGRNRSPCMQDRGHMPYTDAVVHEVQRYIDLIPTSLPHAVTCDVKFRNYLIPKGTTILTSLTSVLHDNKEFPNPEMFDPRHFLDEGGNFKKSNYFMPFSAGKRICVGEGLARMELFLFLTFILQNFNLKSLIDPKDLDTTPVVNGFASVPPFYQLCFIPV

human CYP1A2 [5] = molecular target: T4, human CYP1A2 (Homo sapiens, UniProt P05177); assay: biochemical
T4 sequence (P05177 1-516): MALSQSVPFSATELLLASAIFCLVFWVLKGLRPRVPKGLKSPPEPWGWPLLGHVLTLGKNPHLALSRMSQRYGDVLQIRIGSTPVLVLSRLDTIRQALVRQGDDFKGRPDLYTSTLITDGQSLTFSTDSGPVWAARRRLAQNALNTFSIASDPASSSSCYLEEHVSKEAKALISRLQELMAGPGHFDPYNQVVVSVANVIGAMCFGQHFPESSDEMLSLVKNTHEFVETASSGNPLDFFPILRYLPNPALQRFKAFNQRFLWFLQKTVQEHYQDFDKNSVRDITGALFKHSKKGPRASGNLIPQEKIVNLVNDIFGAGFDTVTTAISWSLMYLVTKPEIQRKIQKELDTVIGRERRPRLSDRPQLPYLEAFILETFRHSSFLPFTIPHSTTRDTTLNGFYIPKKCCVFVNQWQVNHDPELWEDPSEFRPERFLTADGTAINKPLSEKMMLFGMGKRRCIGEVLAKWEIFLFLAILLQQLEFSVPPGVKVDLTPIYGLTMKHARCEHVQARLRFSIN

[6] = molecular target: Photinus pyralis (firefly) luciferase (Photinus pyralis, UniProt P08659); assay: biochemical; assay type: biochemical
Sequence of Photinus pyralis (firefly) luciferase (P08659 whole entry): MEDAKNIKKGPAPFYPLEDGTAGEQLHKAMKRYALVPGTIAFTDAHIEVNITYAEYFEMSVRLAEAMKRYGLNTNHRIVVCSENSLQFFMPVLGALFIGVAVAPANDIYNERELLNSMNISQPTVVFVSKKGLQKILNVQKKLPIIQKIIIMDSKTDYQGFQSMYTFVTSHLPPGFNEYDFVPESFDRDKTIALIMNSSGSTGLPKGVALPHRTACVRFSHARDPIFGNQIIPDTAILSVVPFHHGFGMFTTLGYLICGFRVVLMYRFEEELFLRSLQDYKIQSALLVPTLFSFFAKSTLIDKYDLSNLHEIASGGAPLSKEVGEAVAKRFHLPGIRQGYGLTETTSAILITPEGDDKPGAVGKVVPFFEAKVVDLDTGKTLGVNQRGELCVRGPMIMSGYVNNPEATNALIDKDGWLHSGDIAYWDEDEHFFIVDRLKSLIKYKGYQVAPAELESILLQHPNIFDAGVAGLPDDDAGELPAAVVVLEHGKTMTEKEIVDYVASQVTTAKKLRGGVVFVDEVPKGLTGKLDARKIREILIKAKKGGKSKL

human CYP1A2 [7] = molecular target: T4, human CYP1A2
human CYP2C19 [8] = molecular target: T3, human CYP2C19; assay: biochemical; conditions: CYP2C19 IC50 (half-maximal inhibitory concentration)
human CYP2C9 [9] = molecular target: T2, human CYP2C9; assay: biochemical; conditions: CYP2C9 IC50 (half-maximal inhibitory concentration)
[10] = CYP1A2 IC50 (half-maximal inhibitory concentration)

T1 sequence (P10635 whole entry): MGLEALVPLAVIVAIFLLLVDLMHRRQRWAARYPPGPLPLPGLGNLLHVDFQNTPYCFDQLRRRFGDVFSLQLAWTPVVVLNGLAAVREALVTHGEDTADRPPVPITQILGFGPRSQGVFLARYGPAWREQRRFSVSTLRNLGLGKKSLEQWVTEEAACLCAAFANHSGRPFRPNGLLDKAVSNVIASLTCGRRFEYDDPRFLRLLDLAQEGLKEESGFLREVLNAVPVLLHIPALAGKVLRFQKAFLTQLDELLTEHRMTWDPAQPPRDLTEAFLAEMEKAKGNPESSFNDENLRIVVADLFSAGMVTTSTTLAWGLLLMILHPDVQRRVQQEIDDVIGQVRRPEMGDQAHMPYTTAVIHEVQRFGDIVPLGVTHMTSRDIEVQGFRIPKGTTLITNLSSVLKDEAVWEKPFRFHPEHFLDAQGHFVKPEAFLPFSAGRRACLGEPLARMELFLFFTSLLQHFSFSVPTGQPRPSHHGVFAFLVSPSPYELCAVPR

Row | Compound | CYP3A4 IC50 (half-maximal inhibitory concentration) (CYP3A4) | CYP2D6 IC50 (half-maximal inhibitory concentration) (human CYP2D6 [3]) | pIC50 (human CYP1A2 [5]; [10]) | Luciferase IC50 (half-maximal inhibitory concentration) [6] | pIC50 (human CYP2D6 [3]) | pIC50 (human CYP1A2 [7]) | pIC50 (CYP3A4) | pIC50 (human CYP2C9 [2]) | pIC50 (human CYP2C19 [4]) | other results
1 | OC(CN1CCC(Cc2ccc(F)cc2)CC1)c1ccc(Cl)cc1 (stereo not shown) [Eliprodil] |  |  |  |  |  |  |  |  |  | AC50 (human CYP2D6 [1]; CYP2D6 AC50 (half-maximal activity concentration)): 0.12 µM; pIC50 (human CYP2D6 [1]): 6.92
2 | CCN(CC)CCN1C(=O)CN=C(c2ccccc2F)c2cc(Cl)ccc21 [Flurazepam] |  |  |  |  |  |  |  |  |  | pIC50 (human CYP2D6 [1]): 4.81
3 | Brc1c(Br)c(Br)c(Br)c(Br)c1Br [Hexabromobenzene] | Inactive | Inactive | 7.05 | Inactive |  |  |  |  |  | CYP2C9 IC50 (half-maximal inhibitory concentration) (human CYP2C9 [2]): Inactive; CYP2C19 IC50 (half-maximal inhibitory concentration) (human CYP2C19 [4]): Inactive; CYP1A2 Efficacy (in parenthesis) (human CYP1A2 [7]; human): 0.09 ± 0.01 (-45 ± 9) %
4 | c1ccc2c(c1)-c1ccc3ccc4cccc5cc-2c1c3c45 [Indeno(1,2,3-cd)pyrene] | Inactive | Inactive | 6.74 |  |  |  |  |  |  | pIC50 (human CYP2C19 [8]): 4.81; pIC50 (human CYP2C9 [9]): 5.26; pIC50 [6]: 4.89
5 | c1ccc2nc(N3CCNCC3)ccc2c1 [Quipazine maleate] |  |  |  |  |  |  |  |  |  | CYP3A4 IC50 (CYP3A4): Inactive; CYP2C9 IC50 (human CYP2C9 [2]): Inactive; CYP2D6 IC50 (human CYP2D6 [3]): Inactive; CYP2C19 IC50 (human CYP2C19 [4]): Inactive; pIC50 (human CYP1A2 [5]; CYP1A2 IC50): 6.02; Luciferase IC50 [6]: Inactive
6 | CCN(CC)C(=O)SCc1ccc(Cl)cc1 [Thiobencarb] | Inactive | Inactive | 4.80 |  |  |  |  |  |  | CYP2C9 Efficacy (in parenthesis) (human CYP2C9 [2]; human): 25.18 ± 0 (-91 ± 2) %; pIC50 (human CYP2C19 [8]): 6.18; pIC50 (human CYP2C9 [9]): 4.60; CYP2C19 Efficacy (in parenthesis) (human CYP2C19 [4]; human): 0.66 ± 0.12 (-124 ± 7) %; pIC50 [6]: 4.41; CYP1A2 Efficacy (in parenthesis) (human CYP1A2 [7]; human): 15.89 ± 0 (-91 ± 6) %
7 | Cl.FC(F)(F)c1cccc(C2=CCN(CCc3ccc4ccccc4c3)CC2)c1 [Xaliproden hydrochloride] | 19.77 ± 4.14 (120 ± 18) µM |  |  | Inactive | 6.55 | 4.54 |  |  |  | AC50 (CYP3A4): 19.8 µM; CYP2C9 Efficacy (human CYP2C9 [2]): 22.52 ± 6.28 (29 ± 5) %; CYP2C9 IC50 (half-maximal inhibitory concentration) (human CYP2C9 [2]): 22.52 ± 6.28 (29 ± 5) µM; CYP2D6 Efficacy (human CYP2D6 [3]): 0.28 ± 0.18 (-100 ± 3) %; CYP2C19 IC50 (half-maximal inhibitory concentration) (human CYP2C19 [4]): Inactive; CYP1A2 Efficacy (human CYP1A2 [7]): 28.62 ± 14.29 (-37 ± 3) %
8 | C[C@H]1CCC[C@H](O)CCCCCc2cc(O)cc(O)c2C(=O)O1 [Zearalanol] |  |  |  | Inactive | 4.24 | 4.48 | 6.00 | 4.56 | 4.71 | 
9 | ClC(Cl)=C(c1ccc(Cl)cc1)c1ccc(Cl)cc1 [p,p'-DDE] | Inactive | Inactive | 5.44 | Inactive |  |  |  |  |  | CYP2C9 Efficacy (in parenthesis) (human CYP2C9 [2]; human): 12.86 ± 6.41 (-84 ± 11) %; pIC50 (human CYP2C19 [8]): 6.24; pIC50 (human CYP2C9 [9]): 4.89; CYP2C19 Efficacy (in parenthesis) (human CYP2C19 [4]; human): 0.57 ± 0.14 (-135 ± 7) %; CYP1A2 Efficacy (in parenthesis) (human CYP1A2 [7]; human): 3.65 ± 1.85 (-100 ± 2) %
10 | Cimicifugoside |  | Inactive |  | Inactive |  |  | 6.05 | 4.39 |  | CYP2C19 IC50 (half-maximal inhibitory concentration) (human CYP2C19 [4]): Inactive; CYP1A2 IC50 (half-maximal inhibitory concentration) (human CYP1A2 [7]): Inactive
11 | GW473178E methyl benzene sulphonic acid |  |  |  | Inactive | 4.64 |  | 6.10 | 5.23 | 4.33 | CYP1A2 IC50 (half-maximal inhibitory concentration) (human CYP1A2 [7]): Inactive
12 | Pentaerythritol allyl ether |  | Inactive |  | Inactive |  | 4.63 | 4.89 | 5.22 | 6.08 | 
13 | Trimethylolpropane ethoxylate triacrylate |  |  |  | Inactive | 4.16 | 4.26 | 6.05 | 4.65 | 4.69 | CYP3A4 Efficacy (in parenthesis) (CYP3A4): 0.9 ± 0.43 (-82 ± 18) %; CYP2C9 Efficacy (in parenthesis) (human CYP2C9 [2]): 22.42 ± 6.63 (-90 ± 14) %; CYP2D6 Efficacy (in parenthesis) (human CYP2D6 [3]): 68.92 ± 8.79 (-43 ± 5) %; CYP2C19 Efficacy (in parenthesis) (human CYP2C19 [4]): 20.46 ± 7.7 (-131 ± 32) %; CYP1A2 Efficacy (in parenthesis) (human CYP1A2 [7]): 54.51 ± 3.69 (-43 ± 8) %
